Experimental data taken from PubChem BioAssay (NCI).
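96-well plates; 48 h exposure; 5 concentrations. Endpoints by linear interpolation between flanking doses. Not reached: highest tested concentration assigned. TGI marks complete inhibition of growth.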

Legend:
Assay in all cases: NCI anticancer screen, dose series, 48 h
MDA-MB-435 = system: MDA-MB-435
NCI-H226 lung = system: NCI-H226 lung
CCRF-CEM leukemia = system: CCRF-CEM leukemia
CAKI-1 renal = system: CAKI-1 renal
OVCAR-8 ovarian = system: OVCAR-8 ovarian
HOP-62 NSCLC = system: HOP-62 NSCLC
OVCAR-4 ovarian = system: OVCAR-4 ovarian
SK-MEL-2 melanoma = system: SK-MEL-2 melanoma
LOX IMVI melanoma = system: LOX IMVI melanoma
UO-31 renal = system: UO-31 renal
HCC-2998 colon = system: HCC-2998 colon
A549 NSCLC = system: A549 NSCLC
NCI-H23 lung = system: NCI-H23 lung
TK-10 renal = system: TK-10 renal
SK-MEL-5 melanoma = system: SK-MEL-5 melanoma
COLO 205 colon = system: COLO 205 colon
MOLT-4 leukemia = system: MOLT-4 leukemia
NCI-H460 lung = system: NCI-H460 lung
HCT-15 colon = system: HCT-15 colon
M14 melanoma = system: M14 melanoma
K-562 leukemia = system: K-562 leukemia
UACC-257 melanoma = system: UACC-257 melanoma
SF-539 CNS = system: SF-539 CNS
SK-MEL-28 melanoma = system: SK-MEL-28 melanoma
SNB-75 CNS = system: SNB-75 CNS
BT-549 breast = system: BT-549 breast
T-47D breast = system: T-47D breast
SNB-19 CNS = system: SNB-19 CNS
NCI/ADR-RES ovarian = system: NCI/ADR-RES ovarian
RPMI-8226 leukemia = system: RPMI-8226 leukemia
IGROV1 ovarian = system: IGROV1 ovarian
SW-620 colon = system: SW-620 colon
NCI-H522 lung = system: NCI-H522 lung
786-0 renal = system: 786-0 renal
HS 578T breast = system: HS 578T breast
OVCAR-3 ovarian = system: OVCAR-3 ovarian
HT29 colon = system: HT29 colon
SR leukemia = system: SR leukemia
MDA-MB-231 breast = system: MDA-MB-231 breast
OVCAR-5 ovarian = system: OVCAR-5 ovarian
RXF 393 renal = system: RXF 393 renal
HCT-116 colon = system: HCT-116 colon
MALME-3M melanoma = system: MALME-3M melanoma
HL-60(TB) leukemia = system: HL-60(TB) leukemia
SK-OV-3 ovarian = system: SK-OV-3 ovarian
SF-295 CNS = system: SF-295 CNS
SN12C renal = system: SN12C renal
EKVX NSCLC = system: EKVX NSCLC
MDA-N = system: MDA-N
SF-268 CNS = system: SF-268 CNS
U251 CNS = system: U251 CNS
HOP-92 NSCLC = system: HOP-92 NSCLC
KM12 colon = system: KM12 colon
DU-145 prostate = system: DU-145 prostate
MCF7 breast = system: MCF7 breast
UACC-62 melanoma = system: UACC-62 melanoma
ACHN renal = system: ACHN renal
PC-3 prostate = system: PC-3 prostate
A498 renal = system: A498 renal

## CCN(CC)S(=O)(=O)c1ccc2nc(NC(=O)OC)[nH]c2c1
MDA-MB-435
  TGI: 36.8 µM
NCI-H226 lung
  TGI: > 100 µM
CCRF-CEM leukemia
  TGI: > 100 µM
CAKI-1 renal
  TGI: > 100 µM
OVCAR-8 ovarian
  TGI: > 100 µM
HOP-62 NSCLC
  TGI: > 100 µM
OVCAR-4 ovarian
  TGI: > 100 µM
SK-MEL-2 melanoma
  TGI: > 100 µM
LOX IMVI melanoma
  TGI: > 100 µM
UO-31 renal
  TGI: > 100 µM
HCC-2998 colon
  TGI: > 100 µM
A549 NSCLC
  TGI: > 100 µM
NCI-H23 lung
  TGI: > 100 µM
TK-10 renal
  TGI: > 100 µM
SK-MEL-5 melanoma
  TGI: > 100 µM
COLO 205 colon
  TGI: > 100 µM
MOLT-4 leukemia
  TGI: 61.7 µM
NCI-H460 lung
  TGI: > 100 µM
HCT-15 colon
  TGI: > 100 µM
M14 melanoma
  TGI: > 100 µM
K-562 leukemia
  TGI: > 100 µM
UACC-257 melanoma
  TGI: > 100 µM
SF-539 CNS
  TGI: 74.3 µM
SK-MEL-28 melanoma
  TGI: > 100 µM
SNB-75 CNS
  TGI: > 100 µM
BT-549 breast
  TGI: > 100 µM
T-47D breast
  TGI: > 100 µM
SNB-19 CNS
  TGI: > 100 µM
NCI/ADR-RES ovarian
  TGI: > 100 µM
RPMI-8226 leukemia
  TGI: 47.1 µM
IGROV1 ovarian
  TGI: > 100 µM
SW-620 colon
  TGI: > 100 µM
NCI-H522 lung
  TGI: > 100 µM
786-0 renal
  TGI: > 100 µM
HS 578T breast
  TGI: > 100 µM
OVCAR-3 ovarian
  TGI: > 100 µM
HT29 colon
  TGI: > 100 µM
SR leukemia
  TGI: 83.9 µM
MDA-MB-231 breast
  TGI: > 100 µM
OVCAR-5 ovarian
  TGI: > 100 µM
RXF 393 renal
  TGI: > 100 µM
HCT-116 colon
  TGI: > 100 µM
MALME-3M melanoma
  TGI: > 100 µM
HL-60(TB) leukemia
  TGI: 63.4 µM
SK-OV-3 ovarian
  TGI: > 100 µM
SF-295 CNS
  TGI: > 100 µM
SN12C renal
  TGI: > 100 µM
EKVX NSCLC
  TGI: > 100 µM
MDA-N
  TGI: 65.9 µM
SF-268 CNS
  TGI: > 100 µM
U251 CNS
  TGI: > 100 µM
HOP-92 NSCLC
  TGI: > 100 µM
KM12 colon
  TGI: > 100 µM
DU-145 prostate
  TGI: > 100 µM

## CC(C1CCCC1=O)C1CCCC1=O (stereo not drawn)
NCI-H226 lung
  TGI: > 100 µM
CCRF-CEM leukemia
  TGI: > 100 µM
CAKI-1 renal
  TGI: > 100 µM
OVCAR-8 ovarian
  TGI: > 100 µM
HOP-62 NSCLC
  TGI: > 100 µM
OVCAR-4 ovarian
  TGI: > 100 µM
SK-MEL-2 melanoma
  TGI: > 100 µM
LOX IMVI melanoma
  TGI: > 100 µM
UO-31 renal
  TGI: > 100 µM
MCF7 breast
  TGI: > 100 µM
UACC-62 melanoma
  TGI: > 100 µM
HCC-2998 colon
  TGI: > 100 µM
A549 NSCLC
  TGI: > 100 µM
NCI-H23 lung
  TGI: > 100 µM
TK-10 renal
  TGI: > 100 µM
SK-MEL-5 melanoma
  TGI: > 100 µM
COLO 205 colon
  TGI: > 100 µM
MOLT-4 leukemia
  TGI: > 100 µM
NCI-H460 lung
  TGI: > 100 µM
HCT-15 colon
  TGI: > 100 µM
M14 melanoma
  TGI: > 100 µM
K-562 leukemia
  TGI: > 100 µM
UACC-257 melanoma
  TGI: > 100 µM
SF-539 CNS
  TGI: > 100 µM
ACHN renal
  TGI: > 100 µM
SK-MEL-28 melanoma
  TGI: > 100 µM
SNB-75 CNS
  TGI: > 100 µM
BT-549 breast
  TGI: > 100 µM
T-47D breast
  TGI: > 100 µM
SNB-19 CNS
  TGI: > 100 µM
NCI/ADR-RES ovarian
  TGI: > 100 µM
IGROV1 ovarian
  TGI: > 100 µM
SW-620 colon
  TGI: > 100 µM
NCI-H522 lung
  TGI: > 100 µM
786-0 renal
  TGI: > 100 µM
HS 578T breast
  TGI: > 100 µM
HT29 colon
  TGI: > 100 µM
SR leukemia
  TGI: > 100 µM
MDA-MB-231 breast
  TGI: > 100 µM
OVCAR-5 ovarian
  TGI: > 100 µM
RXF 393 renal
  TGI: > 100 µM
HCT-116 colon
  TGI: > 100 µM
MALME-3M melanoma
  TGI: > 100 µM
HL-60(TB) leukemia
  TGI: > 100 µM
SK-OV-3 ovarian
  TGI: > 100 µM
SF-295 CNS
  TGI: > 100 µM
SN12C renal
  TGI: > 100 µM
EKVX NSCLC
  TGI: > 100 µM
MDA-N
  TGI: > 100 µM
SF-268 CNS
  TGI: > 100 µM
U251 CNS
  TGI: > 100 µM
KM12 colon
  TGI: > 100 µM
PC-3 prostate
  TGI: > 100 µM
DU-145 prostate
  TGI: > 100 µM

## COC(=O)c1c(O)c2c(c3c1OC(C)(C)CC3)OC(C)(C)CC2
NCI-H226 lung
  TGI: 35.9 µM
CCRF-CEM leukemia
  TGI: 55.6 µM
CAKI-1 renal
  TGI: 53.9 µM
OVCAR-8 ovarian
  TGI: 33.3 µM
HOP-62 NSCLC
  TGI: 42.7 µM
OVCAR-4 ovarian
  TGI: 97.7 µM
UO-31 renal
  TGI: 37.4 µM
MCF7 breast
  TGI: 33.1 µM
UACC-62 melanoma
  TGI: 40 µM
HCC-2998 colon
  TGI: 31.2 µM
A549 NSCLC
  TGI: 42.7 µM
NCI-H23 lung
  TGI: 43.4 µM
SK-MEL-5 melanoma
  TGI: 28.2 µM
COLO 205 colon
  TGI: 28.2 µM
MOLT-4 leukemia
  TGI: 56.1 µM
NCI-H460 lung
  TGI: 50.6 µM
HCT-15 colon
  TGI: 35.5 µM
M14 melanoma
  TGI: 41 µM
K-562 leukemia
  TGI: 69.8 µM
UACC-257 melanoma
  TGI: 50.8 µM
SF-539 CNS
  TGI: 36 µM
A498 renal
  TGI: 34.4 µM
ACHN renal
  TGI: 32.3 µM
SK-MEL-28 melanoma
  TGI: 68.8 µM
BT-549 breast
  TGI: 37.2 µM
T-47D breast
  TGI: 39.5 µM
SNB-19 CNS
  TGI: 34.9 µM
NCI/ADR-RES ovarian
  TGI: 56.2 µM
IGROV1 ovarian
  TGI: 42.8 µM
SW-620 colon
  TGI: 32.1 µM
NCI-H522 lung
  TGI: 34.2 µM
786-0 renal
  TGI: 31.1 µM
HS 578T breast
  TGI: 47.2 µM
OVCAR-3 ovarian
  TGI: 36.3 µM
HT29 colon
  TGI: 31.4 µM
MDA-MB-231 breast
  TGI: 30 µM
OVCAR-5 ovarian
  TGI: 35.2 µM
HCT-116 colon
  TGI: 30.4 µM
MALME-3M melanoma
  TGI: 20.9 µM
HL-60(TB) leukemia
  TGI: 40.3 µM
SK-OV-3 ovarian
  TGI: 77.1 µM
SF-295 CNS
  TGI: 32.2 µM
SN12C renal
  TGI: 32.6 µM
EKVX NSCLC
  TGI: 45.8 µM
MDA-N
  TGI: 51.9 µM
SF-268 CNS
  TGI: 60.7 µM
U251 CNS
  TGI: 29.6 µM
KM12 colon
  TGI: 31.6 µM
PC-3 prostate
  TGI: 35.7 µM
DU-145 prostate
  TGI: 74.7 µM
